Test results: the METLIN SMRT retention time set (Domingo-Almenara et al. 2019)

Experiment: gradient 5% acetonitrile 3 min, to 50% in 2 min, to 85% in 15 min, held 3 min, 100 µL/min
Settings: column: Zorbax Extend-C18 2.1 x 50 mm; eluents: water / acetonitrile, 0.1% formic acid
Method in brief: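 Each retention time is based on an adduct peak selected computationally and verified by manual inspection. Measurements used HPLC–quadrupole time-of-flight mass spectrometry in positive and negative ionization mode on mixtures of ~100 pure standards. Chromatography ran on a Zorbax Extend-C18 column (2.1 × 50 mm, 1.8 μm) at 100 μL/min with water and acetonitrile, each containing 0.1% formic acid, and dead and dwell volumes of 40 μL and 900 μL.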

| SMILES | RP-LC retention time |
| --- | --- |
| CC(C)N1CCC(CC(=O)N2CCc3c(c(-c4nc(C5CC5)no4)nn3C)C2)CC1 | 612 s |
| O=C(Cn1c(=O)nc(N2CCCCC2)c2ccccc21)Nc1ccc2c(c1)OCCO2 | 728 s |
| O=C(C1CCN(c2nnc(-c3ccccc3)o2)CC1)N1CCN(C2CCCCC2)CC1 | 628 s |
| CC(=O)Nc1ccc(CCc2nc3ccc(C(=O)NC4CCCCCC4)cc3[nH]2)cc1 | 650 s |
| Cc1ncsc1CN1CC(c2ncc(C)n2Cc2ccccc2)C1 | 559 s |
| COc1ccc(S(=O)(=O)N2CCC(n3cnc4ccc(C)cc4c3=O)CC2)cc1OC | 827 s |
| CC(C)c1cc(C(=O)Nc2ccc(F)cc2)nc2ccnn12 | 1090 s |
| CCc1noc(CC2CCOC3(CCN(S(=O)(=O)c4c(C)cc(C)cc4C)CC3)C2)n1 (stereo not given) | 1190 s |
| Cc1ccsc1-c1nc(-c2ccc3ncn(C)c3c2)no1 | 732 s |
| CCOC(=O)Cn1c(CNC(=O)c2ccco2)nc2ccccc21 | 618 s |
| CN(C)c1ccc(NC(=O)c2cn(-c3ccc(F)cc3)nn2)cc1 | 675 s |
| CC(=O)NCC(=O)NCc1nn(Cc2ccccc2)c2ccccc12 | 679 s |
| Cc1cc(C)c2c(N3CCCCC3)nc(C(=O)N3CCC(C)CC3)nc2n1 | 698 s |
| O=C(C1CC(=O)N(c2ccc3c(c2)CCN3C(=O)C2CC2)C1)N1CCCC1 (stereo not given) | 647 s |
| CCn1cc(C(=O)NC2CCCC2)c2nn(-c3ccccc3)c(=O)c-2c1 | 851 s |
| OCCNc1nc(NCCc2cccs2)nc2c1cnn2-c1ccc(F)cc1 | 698 s |
| Cc1nc(-c2cn(C)c3ncccc23)sc1C(=O)NCc1ccccc1F | 874 s |
| COCCNC(=O)C1CCCN(S(=O)(=O)c2cc(OC)ccc2OC)C1 (stereo not given) | 687 s |
| COc1cccc(-c2csc(-c3nnn(-c4ccc(C)cc4)c3N)n2)c1 | 1140 s |
| CC1(C(=O)NCc2ccc(F)cc2)Cn2cnc(C(=O)NCc3ccc(F)cc3)c2C(=O)N1C1CC1 (stereo not given) | 777 s |
| Cc1nc(-c2ccc(C(=O)N3CC(=O)Nc4ccccc43)cc2)no1 | 668 s |
| Cc1[nH]c2ccc(F)cc2c1CCNS(=O)(=O)c1ccc(F)cc1 | 865 s |
| O=c1[nH]c2sc3c(c2c(=O)n1-c1ccccc1)CCCC3 | 772 s |

| SMILES | RP-LC retention time |
| --- | --- |
| COc1ccc(C2CC(=O)c3c(C)nc(N4CCN(CCO)CC4)nc3C2)cc1 (stereo not given) | 638 s |
| c1ccc(-c2nnc(-c3cccnc3NCc3ccc4c(c3)OCO4)o2)cc1 | 1160 s |
| CCCn1c(C)cnc1C1CN(S(=O)(=O)Cc2ccccc2)C1 | 652 s |
| COCCn1c(C2CCN(S(=O)(=O)c3ccc(C(C)C)cc3)C2)nc2cccnc21 (stereo not given) | 927 s |
| CSc1ccc(CNC(=O)C2CCCN(c3ncnc4c3oc3ccccc34)C2)cc1 (stereo not given) | 786 s |
| O=C1CC(c2ccccc2)N(S(=O)(=O)c2cccc3nsnc23)CCCCCN1 (stereo not given) | 848 s |
| CCOC(=O)c1ccc(NC(=O)N2CCCC2c2cc(CC)no2)cc1 (stereo not given) | 856 s |
| CCCNC(=O)c1nc(-c2ccc3c(c2)OCC(=O)N3CC)no1 | 821 s |
| CCC(C)NC(=O)C1CCN(c2cncnc2N2CCCC2)CC1 (stereo not given) | 608 s |
| CCN1CCCn2cc(S(=O)(=O)NCc3ccc(OC)cc3)cc2C1=O | 698 s |
| Cn1c(=O)c2c(nc(Cc3ccccc3)n2C)n(C)c1=O | 764 s |
| CC1(C)COc2ccc(NC(=O)c3cccc(Br)c3)cc2NC1=O | 892 s |
| O=C(CSCc1ccccc1)NCCNC(=O)c1ccc(NC(=O)C2CC2)cc1 | 683 s |
| O=C(Cn1nc2c(cc1=O)CCCC2)NCCc1c[nH]c2ccc(F)cc12 | 753 s |
| Cc1cccc(C)c1Nc1c(-c2c(F)cccc2Cl)nc2cnccn12 | 866 s |
| O=C(Nc1nc(-c2ccc(F)cc2F)cs1)c1ccccc1F | 1130 s |
| Cc1cc(NC(=O)C(=O)NCC(c2cn(C)c3ccccc23)N(C)C)no1 (stereo not given) | 572 s |
| O=C(NC1CCCCC1)C1CCCN(c2ncnc3c2nc2n3CCCCC2)C1 (stereo not given) | 778 s |
| CCOc1cc(C(=O)N2CCN(c3cc(=O)n(C)c(=O)n3C)CC2)cc(OCC)c1OCC | 730 s |
| O=C(Nc1cccc(F)c1)N1CCCC1c1nc(-c2ccccc2)no1 (stereo not given) | 964 s |
| Cn1nc(N2CCCC(NC(=O)c3cccs3)C2)ccc1=O (stereo not given) | 627 s |
| CCOC(=O)c1ccccc1NC(=O)N1CCc2nc[nH]c2C1 | 626 s |
